Patent publication US10485747B2, “Hair-dye composition” (KAO CORPORATION, priority 2014, dated 2019)

Experiment: pKa, dissociation state and displayed color of the azo dyes
Assay type: physicochemical
Details: proton dissociated
Description: Thus, in the hair dye composition of the present invention having pH (25° C.) of 7.5 to 12, almost 80% or more of these azo dyes are present in an anionic state where a proton(s) is dissociated.

Row | color displayed when a proton(s) dissociates | Structure (SMILES)
1 | red | CSc1nsc(/N=N/c2ccc(O)c(Cl)c2)n1 [Example A-1]
2 | blue | NS(=O)(=O)c1ccc2nsc(/N=N/c3ccc(O)c(Cl)c3)c2c1 [Example A-2]
3 | yellow | Cn1nccc1/N=N/c1ccc(O)c(Cl)c1 [Example A-3]
